Patent US20040166079A1, “N-Lauroyl amino acid composition for slimming the human body” (priority 2003, published 2004)

How the values were obtained:
[1] = molecular target: T1, hyaluronidase (SIGMA), purified from bovine testicles (Bos taurus, UniProt Q2YDK3); test: Measurement of the activity of hyaluronidase (purified enzyme); assay type: biochemical; conditions: hyaluronidase test, 60 minutes at 37° C.
T1 construct: purified from bovine testicles; purchased SIGMA; host or cells: bovine testicles
T1 sequence (Q2YDK3 36-553): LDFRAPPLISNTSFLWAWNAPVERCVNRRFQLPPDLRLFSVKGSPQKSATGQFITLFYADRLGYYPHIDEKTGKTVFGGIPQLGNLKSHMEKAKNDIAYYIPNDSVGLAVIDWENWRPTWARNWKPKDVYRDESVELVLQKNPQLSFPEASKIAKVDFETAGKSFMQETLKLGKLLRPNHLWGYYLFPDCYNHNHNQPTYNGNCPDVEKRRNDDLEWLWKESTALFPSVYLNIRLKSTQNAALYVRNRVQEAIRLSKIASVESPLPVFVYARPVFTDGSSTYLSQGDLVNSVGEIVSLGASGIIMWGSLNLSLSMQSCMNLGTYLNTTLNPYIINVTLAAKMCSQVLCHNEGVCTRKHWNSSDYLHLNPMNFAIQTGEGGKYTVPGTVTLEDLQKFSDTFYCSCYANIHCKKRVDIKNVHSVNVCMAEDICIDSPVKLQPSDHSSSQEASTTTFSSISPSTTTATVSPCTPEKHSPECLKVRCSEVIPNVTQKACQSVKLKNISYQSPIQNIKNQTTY
Description: The objective of this test is to measure the activity of hyaluronidase. This enzyme, which is naturally found in the skin, degrades hyaluronic acid. The study is carried out in vitro on the purified enzyme.
The hyaluronidase (SIGMA), purified from bovine testicles, is incubated at 0.01 U/ml in the presence of hyaluronic acid at 0.02 mg/ml, with or without test product. The incubation is carried out for 60 minutes at 37° C.
Evaluation of the effects: After the incubation, the hyaluronic acid not degraded by the enzyme is precipitated by a 24 mM sodium acetate/79. mM acetic acid mixture (10 minutes, room temperature). The precipitate is measured by spectrophotometry at 590 nm.
The effect of the test products is compared to that observed in the presence of dipotassium glycyrrhizinate, a reference hyaluronidase inhibitor.

lipoprotein lipase (LPL) = test: Measurement of the activity of lipoprotein lipase (PNPB hydrolysis, 400 nm); assay type: biochemical, pseudomonas species; conditions: relative to the control
Description: Lipoprotein lipase (LPL) is an enzyme found in the extracellular compartment of adipocytes. It brings about the hydrolysis of the triglycerides contained in the chylomicrons to fatty acids and glycerol. The latter can thus penetrate into the adipocytes to be stored therein. […] It is based on an enzymatic test using a purified enzyme. A lipoprotein lipase (SIGMA, pseudomonas species) is incubated in the presence of a substrate, p-nitrophenyl butyrate (PNPB), which absorbs light at 400 nm after hydrolysis. [drawing 6] The enzyme, at 20 U/ml, is incubated in the presence of the test product and PNPB, at 0.9 mM. The kinetics of appearance of p-nitrophenol is performed at 37° C. for 10 minutes. It is monitored by measuring the absorbance at 400 nm. The results are presented in the following table, as a percentage inhibition of the lipoprotein lipase activity relative to the control.

human recombinant MMP-2 = molecular target: T2, human recombinant MMP-2 (Homo sapiens, UniProt P08253); test: Measurement of the activity of metalloproteinase MMP-2 (DQ-gelatin fluorescence); assay type: biochemical; conditions: incubation concentration 0.1 % DE; relative to the control
T2 construct: purchased CALBIOCHEM PF023
T2 sequence (P08253 110-660): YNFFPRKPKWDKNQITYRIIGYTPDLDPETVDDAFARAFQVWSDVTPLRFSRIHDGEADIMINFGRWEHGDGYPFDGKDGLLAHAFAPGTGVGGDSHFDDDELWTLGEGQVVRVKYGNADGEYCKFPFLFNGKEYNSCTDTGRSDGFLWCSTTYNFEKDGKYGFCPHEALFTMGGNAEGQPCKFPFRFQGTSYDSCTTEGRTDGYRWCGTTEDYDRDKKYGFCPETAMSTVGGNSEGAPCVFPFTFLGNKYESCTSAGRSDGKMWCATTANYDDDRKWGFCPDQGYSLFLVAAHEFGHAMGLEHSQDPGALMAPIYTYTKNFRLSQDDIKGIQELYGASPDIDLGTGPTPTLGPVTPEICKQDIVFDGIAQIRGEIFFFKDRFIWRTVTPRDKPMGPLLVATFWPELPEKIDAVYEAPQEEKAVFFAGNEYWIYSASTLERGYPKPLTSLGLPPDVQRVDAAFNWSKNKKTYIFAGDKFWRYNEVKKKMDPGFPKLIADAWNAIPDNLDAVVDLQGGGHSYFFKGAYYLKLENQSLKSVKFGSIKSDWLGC
Description: The objective of this test is to evaluate the inhibitory capacity of a product on the enzymatic activity of MMP-2 and MMP-9. This test is based on an enzymatic reaction between purified MMP-2 or MMP-9 and a specific substrate containing a chromophore. The degradation of the chromogenic substrate by the enzyme leads to the production of fluorescence monitored by fluorimetry.
(ii)—A human recombinant MMP-2 (CALBIOCHEM, PF023) is incubated, at 0.1 μg/ml, in the presence of the product and the chromogenic substrate, DQ-gelatin conjugated with fluorescein (MOLECULAR PROBE, D12054) at 10 μg/ml. The reaction mixture is incubated overnight at room temperature, protected from light. The quantity of DQ-gelatin degraded is measured by fluorescence (Ex: 355 nm; Em: 460 nm).
The reactivity of the enzymatic system is systematically monitored for the measurement of the effect of a metalloproteinase inhibitor, 1,10-phenanthroline. The results are presented in the following table, as a percentage inhibition of the enzymatic activity of MMP-2 and MMP-9 relative to the control.

[2] = incubation concentration 0.01 % DE

## Cn1c(=O)c2c(ncn2C)n(C)c1=O [Caffeine, 1,3,7-trimethyl-xanthine]
[1]; incubation concentration 0.001 % DE
  Percentage inhibition of hyaluronidase activity: 15%
[1]; [2]
  Percentage inhibition of hyaluronidase activity: 20%
Lipoprotein lipase (LPL); [2]
  Percentage inhibition of LPL: 0%
Lipoprotein lipase (LPL); incubation concentration 0.1 % DE
  Percentage inhibition of LPL: 0%
Human recombinant MMP-2
  MMP-2 inhibiting effect: 0%
